Laboratory results as given in PubChem BioAssay (NCI).
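Exposure lasted 48 hours, with cells grown in 96-well plates and compounds tested at five concentrations. TGI marks complete inhibition of growth.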

Columns and labels:
Assay in all cases: DTP human tumour cell line panel, 48 h
[1] = tested on: EKVX NSCLC
[2] = tested on: CCRF-CEM leukemia
[3] = tested on: SK-MEL-5 melanoma
[4] = tested on: HS 578T breast
[5] = tested on: DU-145 prostate
[6] = tested on: A549 NSCLC
[7] = tested on: HOP-62 NSCLC
[8] = tested on: RPMI-8226 leukemia
[9] = tested on: MDA-N
[10] = tested on: UACC-257 melanoma
[11] = tested on: BT-549 breast
[12] = tested on: T-47D breast
[13] = tested on: PC-3 prostate
[14] = tested on: KM20L2 colon
[15] = tested on: XF 498 CNS
[16] = tested on: HCT-15 colon
[17] = tested on: U251 CNS
[18] = tested on: DMS 114 small cell lung
[19] = tested on: DMS 273 small cell lung
[20] = tested on: DLD-1 colon

SMILES: Nc1ccc(Oc2ccc(C3(c4ccc(Oc5ccc(N)c(O)c5)cc4)C4CC5CC(C4)CC3C5)cc2)cc1O
- TGI [1]: 6.16 µM
- TGI [2]: 6.47 µM
- TGI [3]: 3.02 µM
- TGI [4]: 5.32 µM
- TGI [5]: 3.68 µM
- TGI [6]: 3.14 µM
- TGI [7]: 4.73 µM
- TGI [8]: 5.64 µM
- TGI [9]: 4.75 µM
- TGI [10]: 5.91 µM
- TGI [11]: 5.27 µM
- TGI [12]: > 77.2 µM
- TGI [13]: 3.18 µM

SMILES: COC(=O)C(Cc1ccc2c(c1)OCO2)(NC(=O)c1ccccc1)P(=O)(OC)OC (centres undefined)
- TGI [1]: > 100 µM
- TGI [2]: > 100 µM
- TGI [3]: > 100 µM
- TGI [14]: > 100 µM
- TGI [15]: > 100 µM
- TGI [6]: > 100 µM
- TGI [16]: > 100 µM
- TGI [7]: > 100 µM
- TGI [8]: > 100 µM
- TGI [17]: > 100 µM
- TGI [10]: > 100 µM
- TGI [18]: > 100 µM
- TGI [19]: > 100 µM
- TGI [20]: > 100 µM

SMILES: CC(C)OP(=O)(OC(C)C)C(=Nc1ccc(N=C(NNc2ccc([N+](=O)[O-])cc2)P(=O)(OC(C)C)OC(C)C)cc1)NNc1ccc([N+](=O)[O-])cc1
- TGI [1]: > 100 µM
- TGI [2]: > 100 µM
- TGI [3]: > 100 µM
- TGI [14]: > 100 µM
- TGI [15]: > 100 µM
- TGI [6]: > 100 µM
- TGI [16]: > 100 µM
- TGI [7]: > 100 µM
- TGI [8]: > 100 µM
- TGI [17]: > 100 µM
- TGI [10]: > 100 µM
- TGI [18]: > 100 µM
- TGI [19]: > 100 µM
- TGI [20]: > 100 µM

SMILES: CCOC(=O)/C(C#N)=c1/s/c(=C(\O)N/N=C/c2ccc(OC)cc2)c(=N)n1-c1ccccc1
- TGI [2]: > 100 µM
- TGI [3]: > 100 µM
- TGI [6]: > 100 µM
- TGI [7]: > 100 µM
- TGI [8]: > 100 µM
- TGI [17]: > 100 µM
- TGI [10]: > 100 µM
- TGI [20]: > 100 µM

SMILES: O=c1cc(O)c1=O
- TGI [1]: > 100 µM
- TGI [2]: > 100 µM
- TGI [3]: > 100 µM
- TGI [4]: > 100 µM
- TGI [5]: > 100 µM
- TGI [6]: > 100 µM
- TGI [16]: > 100 µM
- TGI [7]: > 100 µM
- TGI [8]: > 100 µM
- TGI [17]: > 100 µM
- TGI [9]: > 100 µM
- TGI [10]: > 100 µM
- TGI [11]: > 100 µM
- TGI [12]: > 100 µM
- TGI [13]: > 100 µM
